Publication PMC12502592, “Therapeutic potential of flavonols in the treatment of JCPyV” (Microbiology Spectrum, 2025)

Tests used:
[1] = system: JCPyV; set-up: method as in PMID 26600871, PMID 21402853; details: relative to cidofovir; cited from earlier work
[2] = system: JCPyV; test: Viral spread assay in NHA cells; assay type: cell-based, JC polyomavirus; details: VP1+ at 5, 10 and 15 days post-infection, vs DMSO
Experimental: (§1) For the viral spread assay, the cells were plated at a density of 5,000 cells per well for SVG-A in complete MEM, or 10,000 cells per well for NHA in complete AM, and incubated overnight at 37°C with 5% CO2. The next day, the cells were infected with purified JCPyV (MOI of 10) for 2 h to establish an infection without the presence of drugs. After infection, JCPyV media were aspirated and plates were incubated with complete media as required for each cell type. One day post-infection, the cells were incubated with the highest nontoxic dose (for SVG-A: 10 µM quercetin, 10 µM myricetin, 10 µM fisetin; for NHA: 5 µM quercetin, 10 µM myricetin, 5 µM fisetin) or a volume-matched DMSO control. Plates were incubated at 37°C with 5% CO2 and infection was measured by indirect immunofluorescence quantification at 3, 6, and 9 days post-infection in SVG-As or 5, 10, and 15 days post-infection for NHAs. At every time point, the cells were either fixed in ice-cold methanol or were supplemented with an additional 50 µL of cell media that consisted of the matched concentration of quercetin, fisetin, myricetin, or DMSO vehicle control. Cell counts were obtained by counting the total number of cells in 10 random fields per well (3 wells total per replicate) on the Ti2-E Inverted Fluorescent Microscope (Nikon).
(§2) To quantify the number of infected cells, SVG-A and NHA cells were fixed with ice-cold 100% methanol at −20°C for at least 15 min to permeabilize cells. The cells were rehydrated with 1× phosphate-buffered saline (PBS) for 15 min and rocked at room temperature. Subsequent permeabilization was conducted with incubation in 1% Triton-X (USB) for 10 min with rocking at room temperature. […] The cells were imaged on a Ti2-E Inverted Fluorescence Microscope (Nikon) using the 20× objective. For each plate, a random subset of 10 fields was chosen to image per well, and three wells were analyzed per condition. Images were analyzed using Elements High Content Imaging software (Nikon) to count total cells versus VP1+ cells.

[3] = system: JCPyV; test: JCPyV infection assay in SVG-A cells (VP1 indirect immunofluorescence); assay type: cell-based; details: JC polyomavirus, 2 h pretreatment, MOI 10, drug maintained 72 h, normalized to DMSO
Experimental: (§3) SVG-A cells were plated at 5,000 cells per well, and NHAs were plated at 10,000 per well. The following day, the cells were treated with the above-described dose curve of either quercetin, fisetin, or myricetin, ranging from 10 to 0.15625 µM. A DMSO (vehicle) control that was volume matched to the highest volume of each flavonol was included. The plates were pretreated with drug for 2 h at 37°C with 5% CO2. Next, the cells were incubated in 1× MEM with purified JCPyV (MOI of 10) in the continued presence of either quercetin, myricetin, fisetin, or a DMSO vehicle control matched to the highest concentration of each flavonol. Plates were incubated for 2 h at 37°C with 5% CO2 and rocked every 15 min to ensure homogenous distribution of virus in each well. Virus-containing media were then aspirated and replaced with either quercetin, myricetin, fisetin, or a volume-matched DMSO control in complete media. SVG-A cells were incubated for 72 h in the incubator at 37°C with 5% CO2. Astrocytes were incubated for 120 h at 37°C with 5% CO2. Plates were fixed in 100% ice-cold methanol and quantified using indirect immunofluorescence staining for the late viral protein VP1.
as §2, with “rocked” for “rocked at room temperature. Subsequent permeabilization was conducted with incubation in 1% Triton-X (USB) for 10 min with rocking”
(§4) A linear regression between successive points was used to calculate the half maximal inhibitory values (IC50) from the dose curves of each drug. […] Significance was calculated using Student’s two-tailed t-test in GraphPad Prism. […]

[4] = system: JCPyV; test: Infection time course in NHA cells; assay type: cell-based, JC polyomavirus; details: added at -2, 0, 2 or 24 h relative to infection, VP1+ at 120 h post-infection
Experimental: (§5) SVG-A cells were plated at 5,000 cells per well, and NHAs were plated at 10,000 per well in a Corning 96-well tissue culture-treated plate. The following day, the cells were treated at the following four time points: 2 h before infection (−2 h; pretreatment), 0 h (co-treatment at the time of infection), 2 hs after infection (post treatment), or 24 h after infection (post-treatment). At the 2-h pretreatment time point, quercetin, myricetin, fisetin, or a volume-matched DMSO control was added in complete media. For all other time points, complete media were administered as a mock treatment. The plates were incubated for 2 h at 37°C and 5% CO2. At the 0-h time point, purified JCPyV (MOI of 10) in unsupplemented media was added to each of the time points, either alone or in the presence of drug, as appropriate for each treatment condition. In the −2 h and 0 h treated wells, quercetin, myricetin, fisetin, or a volume-matched DMSO control was added as co-treatment. All plates were infected with purified JCPyV at the same time, for 2 h at 37°C and 5% CO2. At the 2-h time point, the virus was aspirated and flavonols in complete media were added to the −2, 0, and 2 h time points. Complete media without drug or vehicle control was administered to the 24-h time point. Twenty-four hours after infection, flavonols were added to the 24-h time point, in complete media. SVG-A cells were incubated at 37°C and 5% CO2 for 72 h after infection, and NHA cells were incubated at 37°C and 5% CO2 for 120 h after infection. Plates were then stained and infection was quantified via indirect immunofluorescence.
as §2, with “cells.” for “cells. The cells were rehydrated with 1× phosphate-buffered saline (PBS) for 15 min and rocked at room temperature. Subsequent permeabilization was conducted with incubation in 1% Triton-X (USB) for 10 min with rocking at room temperature.”

[5] = system: JCPyV; test: JCPyV infection assay in NHA cells (VP1 indirect immunofluorescence); assay type: cell-based; details: JC polyomavirus, 2 h pretreatment, MOI 10, drug maintained 120 h, normalized to DMSO
Experimental: as §3
as §2, with “rocked” for “rocked at room temperature. Subsequent permeabilization was conducted with incubation in 1% Triton-X (USB) for 10 min with rocking”
as §4

[6] = system: JCPyV; test: Viral spread assay in SVG-A cells; assay type: cell-based, JC polyomavirus; details: 10 µM added 24 h post-infection, VP1+ at 3, 6 and 9 days post-infection, vs DMSO
Experimental: as §1, §2

[7] = system: SVG-A cells; test: Viral ToxGlo toxicity assay in SVG-A cells; assay type: cell-based, human
Experimental: (§6) SVG-A cells were plated at 5,000 cells per well, and NHAs were plated at 10,000 per well in a Corning 96-well tissue culture-treated plate. The following day, the cells were treated with a twofold dilution series of either quercetin, myricetin, or fisetin, ranging from 20 to 0.15625 µM, in phenol-free media. SVG-A cells were incubated with drug for 72 h in the incubator at 37°C with 5% CO2. NHA cells were incubated with drug for 120 h at 37°C with 5% CO2 to match the exposure times for infection. After incubation, a luciferase-based Viral ToxGlo Assay (Promega) was added to each well according to the manufacturer’s protocol. Viral ToxGlo measures the amount of ATP activity present through a luminescent signal. The cells were incubated with Viral ToxGlo lytic reagent for 10 min at 37°C with 5% CO2. Lysed cell suspension was then transferred to an opaque plate, and luciferase activity was read on the Glomax Multi-detection System (Promega, 0.5 s integration time) and normalized to a vehicle control.

[8] = system: NHA cells; test: Viral ToxGlo toxicity assay in NHA cells; assay type: cell-based, human
Experimental: as §6

[9] = system: JCPyV; test: Infection time course in SVG-A cells; assay type: cell-based, JC polyomavirus; details: 10 µM, added at -2, 0, 2 or 24 h relative to infection, VP1+ at 72 h post-infection
Experimental: as §5
as §2, with “cells.” for “cells. The cells were rehydrated with 1× phosphate-buffered saline (PBS) for 15 min and rocked at room temperature. Subsequent permeabilization was conducted with incubation in 1% Triton-X (USB) for 10 min with rocking at room temperature.”

[10] = set-up: method as in PMID 29317180; details: amplification of hippocampal long-term potentiation; cited from earlier work
[11] = set-up: method as in PMID 14980703, PMID 28528183; details: U251 cells; cited from earlier work

| Structure (SMILES) | concentration reducing JCPyV DNA copy number, fold smaller than cidofovir [1] [×] | inhibition of viral spread in established infection ([2]; 10 µM added 24 h post-infection) | IC50 [3] [µM] | inhibition of JCPyV infection by time of addition ([4]; 10 µM) | IC50 [5] [µM] | inhibition of viral spread in established infection [6] | highest nontoxic dose ([7]; SVG-A cells) [µM] | highest nontoxic dose ([8]; NHA cells) [µM] | inhibition of JCPyV infection by time of addition [9] | inhibition of viral spread in established infection ([2]; 5 µM added 24 h post-infection) | inhibition of JCPyV infection by time of addition ([4]; 5 µM) | crossing of the BBB in vivo [10] | highest nontoxic dose ([7]; human, 72 h) [µM] | highest nontoxic dose ([8]; human, 120 h) [µM] | crossing of the BBB in in vitro models [11] |
| --- | --- | --- | --- | --- | --- | --- | --- | --- | --- | --- | --- | --- | --- | --- | --- |
| CCCCCCCCCCCCCCCCOCCCOP(=O)(O)CO[C@H](CO)Cn1ccc(N)nc1=O [Brincidofovir] | 100 | – | – | – | – | – | – | – | – | – | – | – | – | – | – |
| O=c1c(O)c(-c2cc(O)c(O)c(O)c2)oc2cc(O)cc(O)c12 [myricetin] | – | without effect | 8.07 | lost by 2 h post-infection | 4.47 | no significant reduction in viral spread compared to DMSO control | 10 | 10 | effective only when given 2 h before infection or at the time of infection | – | – | – | – | – | – |
| O=c1c(O)c(-c2ccc(O)c(O)c2)oc2cc(O)ccc12 [fisetin] | – | – | 5.76 | – | 3.72 | inhibit viral spread in SVG-A cells at 3, 6, and 9 days post-infection | – | – | inhibited infection at all time points up to and including 24 h post-infection | significantly reduce JCPyV infection at all time points | maintained their ability to inhibit infection even when administered at 24 h post-infection | found to cross the BBB in vivo | 10 | 5 | – |
| O=c1c(O)c(-c2ccc(O)c(O)c2)oc2cc(O)cc(O)c12 [quercetin] | – | – | 6.04 | – | 2.51 | inhibit viral spread in SVG-A cells at 3, 6, and 9 days post-infection | 10 | 5 | inhibited infection at all time points up to and including 24 h post-infection | significantly reduce JCPyV infection at all time points | maintained their ability to inhibit infection even when administered at 24 h post-infection | – | – | – | up to 65% |
